From ChEMBL document CHEMBL1201862, “PubChem BioAssay data set” (2004)
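Briefly, cells in 96-well plates were exposed to five compound concentrations for 48 h, and endpoints were estimated by linear interpolation. Here, GI50 denotes the concentration required for 50% inhibition of growth.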 The source made the active and inactive calls. Cut-off read from the data, not from the text of the source: active = GI50 up to about 1.1 µM and inactive = higher.

Tests used:
Assay in all cases: NCI tumour cell line growth inhibition, 48 h
ACHN = tested on: ACHN
CAKI-1 = tested on: CAKI-1
HCT-15 = tested on: HCT-15
HOP-62 = tested on: HOP-62
K562 = tested on: K562
M14 = tested on: M14
MOLT-4 = tested on: MOLT-4
Malme-3M = tested on: Malme-3M
NCI-H522 = tested on: NCI-H522
OVCAR-4 = tested on: OVCAR-4
OVCAR-5 = tested on: OVCAR-5
OVCAR-8 = tested on: OVCAR-8
RXF 393 = tested on: RXF 393
SK-MEL-5 = tested on: SK-MEL-5
SNB-75 = tested on: SNB-75
SW-620 = tested on: SW-620
UO-31 = tested on: UO-31
HCT-116 = tested on: HCT-116
HT-29 = tested on: HT-29

| Structure (SMILES) | GI50 (ACHN) | GI50 (CAKI-1) | GI50 (HCT-15) | GI50 (HOP-62) | GI50 (K562) | GI50 (M14) | GI50 (MOLT-4) | GI50 (Malme-3M) | GI50 (NCI-H522) | GI50 (OVCAR-4) | GI50 (OVCAR-5) | GI50 (OVCAR-8) | GI50 (RXF 393) | GI50 (SK-MEL-5) | GI50 (SNB-75) | GI50 (SW-620) | GI50 (UO-31) | GI50 (HCT-116) | GI50 (HT-29) |
| --- | --- | --- | --- | --- | --- | --- | --- | --- | --- | --- | --- | --- | --- | --- | --- | --- | --- | --- | --- |
| Cc1nn(-c2ccccc2)c(-c2ccccc2[N+](=O)[O-])c1CC#N | > 100 µM (inactive) | > 100 µM (inactive) | > 100 µM | > 100 µM (inactive) | 59.2 µM (inactive) | > 100 µM (inactive) | 67.3 µM (inactive) | 29.4 µM (inactive) | 22.2 µM (inactive) | > 100 µM (inactive) | > 100 µM (inactive) | > 100 µM (inactive) | 45 µM (inactive) | 7.87 µM (inactive) | > 100 µM (inactive) | > 10 µM (inactive) | 82.2 µM (inactive) | – | – |
| N#CC(C#N)=C(N)/C(C#N)=C\c1ccnc2ccccc12 | 40.6 µM (inactive) | 23.6 µM (inactive) | – | 23.9 µM (inactive) | 4.24 µM (inactive) | 23 µM (inactive) | 15.8 µM (inactive) | 24.8 µM (inactive) | 30 µM (inactive) | 72.6 µM (inactive) | > 100 µM (inactive) | 17.3 µM (inactive) | 18.6 µM (inactive) | 14.6 µM (inactive) | 31.4 µM (inactive) | 3.49 µM (inactive) | 18.2 µM (inactive) | 0.962 µM (active) | 24.8 µM (inactive) |
| c1ccc(/C(=N/Nc2cnccn2)c2ncccn2)cc1 | 40.7 µM (inactive) | 50.9 µM (inactive) | 50.6 µM | 53.5 µM (inactive) | > 100 µM (inactive) | 78.2 µM (inactive) | 28.6 µM (inactive) | – | 14.9 µM (inactive) | 67.9 µM (inactive) | > 100 µM (inactive) | 46 µM (inactive) | > 100 µM (inactive) | 39.9 µM (inactive) | 13.7 µM (inactive) | 41.1 µM (inactive) | 29 µM (inactive) | > 100 µM (inactive) | 27.4 µM (inactive) |
| C=C(c1ccccc1)c1cc2c(=O)[nH]ccc2n1C | 35.7 µM (inactive) | 33.2 µM (inactive) | 27.3 µM | 25 µM (inactive) | 13.8 µM (inactive) | 29.2 µM (inactive) | 27.2 µM (inactive) | 30.1 µM (inactive) | 16.3 µM (inactive) | 35.5 µM (inactive) | 44.2 µM (inactive) | 34 µM (inactive) | 19.3 µM (inactive) | 26 µM (inactive) | 11.9 µM (inactive) | 28.5 µM (inactive) | 18.5 µM (inactive) | – | – |
| CC(C)(C)[Si](C)(C)OCC1OC(n2cnc3c(N)ncnc32)C(O)C1O (stereo not given) | > 100 µM (inactive) | > 100 µM (inactive) | > 100 µM | > 100 µM (inactive) | 70.6 µM (inactive) | > 100 µM (inactive) | 39.6 µM (inactive) | > 100 µM (inactive) | > 100 µM (inactive) | > 100 µM (inactive) | > 100 µM (inactive) | > 100 µM (inactive) | 36.7 µM (inactive) | 26.5 µM (inactive) | 59.8 µM (inactive) | > 100 µM (inactive) | 65.6 µM (inactive) | > 100 µM (inactive) | > 100 µM (inactive) |
| O=C(NN1C(=O)C(Cl)C1c1ccccc1Cl)c1ccccc1O (stereo not given) | > 100 µM (inactive) | – | > 100 µM | – | > 100 µM (inactive) | > 100 µM (inactive) | > 100 µM (inactive) | > 100 µM (inactive) | > 100 µM (inactive) | > 100 µM (inactive) | – | > 100 µM (inactive) | 15.9 µM (inactive) | > 100 µM (inactive) | > 100 µM (inactive) | – | > 100 µM (inactive) | > 100 µM (inactive) | > 100 µM (inactive) |
| CC(=O)NNC1=NN(C(C)=O)C2(S1)C(=O)Nc1ccccc12 (stereo not given) | > 100 µM (inactive) | > 100 µM (inactive) | > 100 µM | > 100 µM (inactive) | > 100 µM (inactive) | > 100 µM (inactive) | > 100 µM (inactive) | > 100 µM (inactive) | > 100 µM (inactive) | > 100 µM (inactive) | > 100 µM (inactive) | > 100 µM (inactive) | – | > 100 µM (inactive) | 65.8 µM (inactive) | > 100 µM (inactive) | > 100 µM (inactive) | > 100 µM (inactive) | > 100 µM (inactive) |
| COc1c(C)c(C/C=C(\C)CCCC(C)CCCC(C)CCCC(C)C)c(OC)c2ccccc12 (stereo not given) | > 100 µM (inactive) | > 100 µM (inactive) | > 100 µM | – | > 100 µM (inactive) | > 100 µM (inactive) | > 100 µM (inactive) | – | > 100 µM (inactive) | > 100 µM (inactive) | > 100 µM (inactive) | > 100 µM (inactive) | > 100 µM (inactive) | > 100 µM (inactive) | > 100 µM (inactive) | > 100 µM (inactive) | > 100 µM (inactive) | > 100 µM (inactive) | > 100 µM (inactive) |
| Clc1ccc(-c2nnc(-c3nn(-c4ccccc4)c4nc5ccccc5nc34)o2)cc1 | > 100 µM (inactive) | > 100 µM (inactive) | 55 µM | > 100 µM (inactive) | 38.2 µM (inactive) | 48.3 µM (inactive) | 26.9 µM (inactive) | 84.3 µM (inactive) | > 100 µM (inactive) | 28 µM (inactive) | > 100 µM (inactive) | 82.8 µM (inactive) | 93.3 µM (inactive) | 12.9 µM (inactive) | 95.1 µM (inactive) | 62.4 µM (inactive) | > 100 µM (inactive) | 35.9 µM (inactive) | > 100 µM (inactive) |
| COC(=O)c1cc(=O)nc2sc3cccc(C)c3n12 | 20.9 µM (inactive) | 24.6 µM (inactive) | 43 µM | > 100 µM (inactive) | 30.3 µM (inactive) | 33.1 µM (inactive) | 28.6 µM (inactive) | 23.9 µM (inactive) | 23.2 µM (inactive) | > 100 µM (inactive) | 38 µM (inactive) | 20.9 µM (inactive) | 56.1 µM (inactive) | 60.7 µM (inactive) | > 100 µM (inactive) | 30.3 µM (inactive) | – | 28.8 µM (inactive) | 28.5 µM (inactive) |
| Nc1ccc2c(SCCSc3c4ccccc4nc4cc(N)ccc34)c3ccccc3nc2c1 | 55.7 µM (inactive) | > 100 µM (inactive) | > 100 µM | > 100 µM (inactive) | 38.6 µM (inactive) | > 100 µM (inactive) | 15.7 µM (inactive) | > 100 µM (inactive) | > 100 µM (inactive) | > 100 µM (inactive) | > 100 µM (inactive) | > 100 µM (inactive) | – | > 100 µM (inactive) | > 100 µM (inactive) | > 100 µM (inactive) | > 100 µM (inactive) | 57.4 µM (inactive) | > 100 µM (inactive) |
| C(=C\C(Sc1ccccc1)c1ccccc1)/NNC1=NN=C(c2ccccc2)C(c2ccccc2)N1 (stereo not given) | 44.7 µM (inactive) | 24.8 µM (inactive) | 23.5 µM | 16.5 µM (inactive) | 13.1 µM (inactive) | 75 µM (inactive) | 8.2 µM (inactive) | 50 µM (inactive) | 33.7 µM (inactive) | 83 µM (inactive) | 35.5 µM (inactive) | 34.6 µM (inactive) | – | 45.9 µM (inactive) | > 100 µM (inactive) | 21.8 µM (inactive) | 18.8 µM (inactive) | 42.2 µM (inactive) | 12 µM (inactive) |
| CCN(/N=C1\CC2C=CCN(C2)C(=O)Cc2c1[nH]c1ccccc21)S(=O)(=O)c1ccc(C)cc1 (stereo not given) | > 100 µM (inactive) | 25.4 µM (inactive) | 85.9 µM | – | 71.6 µM (inactive) | – | 59.4 µM (inactive) | > 100 µM (inactive) | 36.7 µM (inactive) | 51.8 µM (inactive) | – | 78 µM (inactive) | – | 56.6 µM (inactive) | 35.6 µM (inactive) | 78 µM (inactive) | 39.4 µM (inactive) | 85.9 µM (inactive) | – |
| C1=CC(=P(c2ccccc2)(c2ccccc2)c2ccccc2)C=C1 | 14.2 µM (inactive) | 17.9 µM (inactive) | 29.7 µM | 18.4 µM (inactive) | 3.45 µM (inactive) | 8.22 µM (inactive) | 5.4 µM (inactive) | 4.75 µM (inactive) | 3.13 µM (inactive) | 13.9 µM (inactive) | 14.7 µM (inactive) | 4.95 µM (inactive) | 13.7 µM (inactive) | 12.2 µM (inactive) | 3.37 µM (inactive) | 16.1 µM (inactive) | 15.9 µM (inactive) | – | 10.6 µM (inactive) |
| N#CC(C(=O)C(=O)Nc1ccccc1)c1ccccc1 (stereo not given) | > 100 µM (inactive) | > 100 µM (inactive) | > 100 µM | – | > 100 µM (inactive) | > 100 µM (inactive) | > 100 µM (inactive) | > 100 µM (inactive) | > 100 µM (inactive) | – | – | – | – | – | > 100 µM (inactive) | > 100 µM (inactive) | > 100 µM (inactive) | > 100 µM (inactive) | > 100 µM (inactive) |
| COc1ccc(C2ON(c3ccccn3)CC=C2C)cc1 (stereo not given) | > 100 µM (inactive) | > 100 µM (inactive) | > 100 µM | > 100 µM (inactive) | > 100 µM (inactive) | > 100 µM (inactive) | 96.4 µM (inactive) | > 100 µM (inactive) | 47.4 µM (inactive) | > 100 µM (inactive) | 36.5 µM (inactive) | > 100 µM (inactive) | > 100 µM (inactive) | > 100 µM (inactive) | > 100 µM (inactive) | > 100 µM (inactive) | 34.5 µM (inactive) | – | > 100 µM (inactive) |
